In the supplement of paper PMC11061612:

How the values were obtained:
Assay in all cases: Bliss excess, mean over the matrix (fraction); higher = more synergy
[1] = test system: UM-UC-3 (Bladder Carcinoma)
Outline: (§1)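 Bliss excess equals the observed combination effect minus the expected value EA + EB − EA·EB, where EA and EB are the effects of each agent alone. Combination Emax is the second-highest inhibition within the matrix. Inhibition was scaled from CellTiter-Glo 2.0 luminescence, with 0 set by vehicle wells and 1 by blank wells, after 72 hours of two-drug dosing of cells plated in 1536-well plates.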

[2] = test system: NCI-H82 (Small Cell Lung Carcinoma)
Outline: as §1

[3] = test system: NCI-H2085 (Non-Small Cell Lung Carcinoma)
Outline: as §1

ES4 (Ewing's Sarcoma) = test system: ES4 (Ewing's Sarcoma)
Outline: as §1

42-MG-BA (Glioblastoma) = test system: 42-MG-BA (Glioblastoma)
Outline: as §1

[4] = test system: LS-180 (Colorectal Carcinoma)
Outline: as §1

[5] = test system: HCC1806 (Breast Carcinoma)
Outline: as §1

[6] = test system: HuP-T4 (Pancreatic Carcinoma)
Outline: as §1

[7] = test system: TE-15 (Esophageal Squamous Cell Carcinoma)
Outline: as §1

[8] = test system: SK-ES-1 (Ewing's Sarcoma)
Outline: as §1

[9] = test system: MDA-MB-361 (Breast Carcinoma)
Outline: as §1

[10] = test system: CAL-148 (Breast Carcinoma)
Outline: as §1

SMILES: CN(CCO)CC[C@H](CSc1ccccc1)Nc1ccc(S(=O)(=O)NC(=O)c2ccc(N3CCC([C@@H](O)c4ccccc4-c4ccc(Cl)cc4)CC3)cc2)cc1S(=O)(=O)C(F)(F)F [AZD4320] + Cc1cc2ncnn2cc1Nc1ncc2c(n1)n(C1CCOCC1)c(=O)n2C [AZD7648] (first compound max 1 µM, 7x7, partner max 10 µM)
- Bliss excess [1]: -0.0234
- Bliss excess [2]: 0.012
- Bliss excess [3]: -0.0399
- Bliss excess (ES4 (Ewing's Sarcoma)): 0.0147
- Bliss excess (42-MG-BA (Glioblastoma)): -0.0244
- Bliss excess [4]: -0.0458
- Bliss excess [5]: -0.058
- Bliss excess [6]: -0.0439
- Bliss excess [7]: -0.046
- Bliss excess [8]: 0.0809
- Bliss excess [9]: 0.0056
- Bliss excess [10]: -0.0011

SMILES: CN(CCO)CC[C@H](CSc1ccccc1)Nc1ccc(S(=O)(=O)NC(=O)c2ccc(N3CCC([C@@H](O)c4ccccc4-c4ccc(Cl)cc4)CC3)cc2)cc1S(=O)(=O)C(F)(F)F [AZD4320] + Cn1cnc2c(F)c(Nc3ccc(Br)cc3Cl)c(C(=O)NOCCO)cc21 [Selumetinib] (first compound max 1 µM, 7x7, partner max 3 µM)
- Bliss excess [1]: -0.0058
- Bliss excess [2]: -0.0009
- Bliss excess [3]: 0.032
- Bliss excess (ES4 (Ewing's Sarcoma)): 0.0074
- Bliss excess (42-MG-BA (Glioblastoma)): 0.0167
- Bliss excess [4]: 0.0159
- Bliss excess [5]: 0.0605
- Bliss excess [6]: 0.0393
- Bliss excess [7]: -0.0391
- Bliss excess [8]: -0.0095
- Bliss excess [9]: 0.0835
- Bliss excess [10]: -0.0201

SMILES: COc1nnc2ccc(N3CCC(c4ccc(OCCN5CCN(C)C(=O)[C@H]5C)cc4)CC3)nn12 [AZD5153] + C=CCn1c(=O)c2cnc(Nc3ccc(N4CCN(C)CC4)cc3)nc2n1-c1cccc(C(C)(C)O)n1 [AZD1775] (first compound max 1 µM, partner max 1 µM)
- Bliss excess [1]: -0.0413
- Bliss excess [2]: -0.0656
- Bliss excess [3]: -0.0223
- Bliss excess (ES4 (Ewing's Sarcoma)): -0.0223
- Bliss excess (42-MG-BA (Glioblastoma)): -0.0577
- Bliss excess [4]: -0.049
- Bliss excess [5]: -0.0704
- Bliss excess [6]: -0.0435
- Bliss excess [7]: -0.001
- Bliss excess [8]: -0.0279
- Bliss excess [9]: -0.136
- Bliss excess [10]: -0.0117

SMILES: COc1nnc2ccc(N3CCC(c4ccc(OCCN5CCN(C)C(=O)[C@H]5C)cc4)CC3)nn12 [AZD5153] + CC1(C)CCC(CN2CCN(c3ccc(C(=O)NS(=O)(=O)c4ccc(NCC5CCOCC5)c([N+](=O)[O-])c4)c(Oc4cnc5[nH]ccc5c4)c3)CC2)=C(c2ccc(Cl)cc2)C1 [Venetoclax] (first compound max 1 µM, 7x7, partner max 1 µM)
- Bliss excess [1]: -0.043
- Bliss excess [2]: -0.103
- Bliss excess [3]: -0.0655
- Bliss excess (ES4 (Ewing's Sarcoma)): -0.111
- Bliss excess (42-MG-BA (Glioblastoma)): -0.0391
- Bliss excess [4]: -0.0614
- Bliss excess [5]: -0.0513
- Bliss excess [6]: -0.0457
- Bliss excess [7]: -0.0698
- Bliss excess [8]: -0.0092
- Bliss excess [9]: -0.0257
- Bliss excess [10]: -0.0682

SMILES: COc1nnc2ccc(N3CCC(c4ccc(OCCN5CCN(C)C(=O)[C@H]5C)cc4)CC3)nn12 [AZD5153] + CCN(CCO)CCCOc1ccc2c(Nc3cc(CC(=O)Nc4cccc(F)c4)[nH]n3)ncnc2c1 [AZD2811] (first compound max 1 µM, 7x7, partner max 1 µM)
- Bliss excess [1]: 0.0346
- Bliss excess [2]: -0.064
- Bliss excess [3]: -0.0594
- Bliss excess (ES4 (Ewing's Sarcoma)): 0.0055
- Bliss excess (42-MG-BA (Glioblastoma)): -0.0476
- Bliss excess [4]: -0.111
- Bliss excess [5]: -0.042
- Bliss excess [6]: -0.0595
- Bliss excess [7]: -0.0535
- Bliss excess [8]: -0.0695
- Bliss excess [9]: -0.0448
- Bliss excess [10]: -0.0361

SMILES: COc1nnc2ccc(N3CCC(c4ccc(OCCN5CCN(C)C(=O)[C@H]5C)cc4)CC3)nn12 [AZD5153] + C[C@@H]1COCCN1C2=NC(=NC(=C2)C3(CC3)[S@](=N)(=O)C)C4=C5C=CNC5=NC=C4 [AZD6738] (first compound max 1 µM, 7x7, partner max 10 µM)
- Bliss excess [1]: 0.0647
- Bliss excess [2]: -0.0906
- Bliss excess [3]: 0.0107
- Bliss excess (ES4 (Ewing's Sarcoma)): 0.0104
- Bliss excess (42-MG-BA (Glioblastoma)): -0.0155
- Bliss excess [4]: -0.0165
- Bliss excess [5]: 0.0113
- Bliss excess [6]: -0.028
- Bliss excess [7]: -0.0096
- Bliss excess [8]: 0.0023
- Bliss excess [9]: -0.0172
- Bliss excess [10]: 0.0315

SMILES: COc1nnc2ccc(N3CCC(c4ccc(OCCN5CCN(C)C(=O)[C@H]5C)cc4)CC3)nn12 [AZD5153] + Cc1c2c(nn1C)CSCc1cc(n(C)n1)CSc1cc(c3ccccc3c1)OCCCc1c(C(=O)O)n(C)c3c-2c(Cl)ccc13 [AZD5991] (first compound max 1 µM, 7x7, partner max 1 µM)
- Bliss excess [1]: 0.0031
- Bliss excess [2]: -0.0659
- Bliss excess [3]: -0.0081
- Bliss excess (ES4 (Ewing's Sarcoma)): -0.0665
- Bliss excess (42-MG-BA (Glioblastoma)): 0.0576
- Bliss excess [4]: -0.0279
- Bliss excess [5]: -0.0137
- Bliss excess [6]: -0.0461
- Bliss excess [7]: -0.0124
- Bliss excess [8]: 0.0048
- Bliss excess [9]: -0.0406
- Bliss excess [10]: 0.0117

SMILES: COc1nnc2ccc(N3CCC(c4ccc(OCCN5CCN(C)C(=O)[C@H]5C)cc4)CC3)nn12 [AZD5153] + Cn1cnc2c(F)c(Nc3ccc(Br)cc3Cl)c(C(=O)NOCCO)cc21 [Selumetinib] (first compound max 1 µM, 7x7, partner max 10 µM)
- Bliss excess [1]: 0.113
- Bliss excess [2]: -0.0771
- Bliss excess [3]: 0.027
- Bliss excess (ES4 (Ewing's Sarcoma)): -0.0697
- Bliss excess (42-MG-BA (Glioblastoma)): -0.0245
- Bliss excess [4]: -0.0284
- Bliss excess [5]: -0.0233
- Bliss excess [6]: 0.0621
- Bliss excess [7]: 0.0225
- Bliss excess [8]: -0.0188
- Bliss excess [9]: 0.0073
- Bliss excess [10]: 0.0129

SMILES: Cc1c2c(nn1C)CSCc1cc(n(C)n1)CSc1cc(c3ccccc3c1)OCCCc1c(C(=O)O)n(C)c3c-2c(Cl)ccc13 [AZD5991] + C1CN(CCC1(C(=O)N[C@@H](CCO)C2=CC=C(C=C2)Cl)N)C3=NC=NC4=C3C=CN4 [Capivasertib] (first compound max 1 µM, 7x7, partner max 3 µM)
- Bliss excess [1]: -0.0231
- Bliss excess [2]: -0.008
- Bliss excess [3]: -0.0334
- Bliss excess (ES4 (Ewing's Sarcoma)): 0.0162
- Bliss excess (42-MG-BA (Glioblastoma)): -0.0442
- Bliss excess [4]: 0.0195
- Bliss excess [5]: 0.0085
- Bliss excess [6]: 0.0085
- Bliss excess [7]: -0.0196
- Bliss excess [8]: 0.0217
- Bliss excess [9]: 0.0211
- Bliss excess [10]: 0.0486

SMILES: Cc1c2c(nn1C)CSCc1cc(n(C)n1)CSc1cc(c3ccccc3c1)OCCCc1c(C(=O)O)n(C)c3c-2c(Cl)ccc13 [AZD5991] + C=CCn1c(=O)c2cnc(Nc3ccc(N4CCN(C)CC4)cc3)nc2n1-c1cccc(C(C)(C)O)n1 [AZD1775] (first compound max 1 µM, partner max 1 µM)
- Bliss excess [1]: -0.0077
- Bliss excess [2]: -0.0532
- Bliss excess [3]: -0.0165
- Bliss excess (ES4 (Ewing's Sarcoma)): 0.0578
- Bliss excess (42-MG-BA (Glioblastoma)): 0.0071
- Bliss excess [4]: 0.0495
- Bliss excess [5]: 0.0493
- Bliss excess [6]: -0.0039
- Bliss excess [7]: -0.0135
- Bliss excess [8]: -0.0008
- Bliss excess [9]: -0.052
- Bliss excess [10]: 0.0567

SMILES: Cc1c2c(nn1C)CSCc1cc(n(C)n1)CSc1cc(c3ccccc3c1)OCCCc1c(C(=O)O)n(C)c3c-2c(Cl)ccc13 [AZD5991] + CC1(C)CCC(CN2CCN(c3ccc(C(=O)NS(=O)(=O)c4ccc(NCC5CCOCC5)c([N+](=O)[O-])c4)c(Oc4cnc5[nH]ccc5c4)c3)CC2)=C(c2ccc(Cl)cc2)C1 [Venetoclax] (first compound max 1 µM, 7x7, partner max 1 µM)
- Bliss excess [1]: -0.0062
- Bliss excess [2]: -0.036
- Bliss excess [3]: -0.0042
- Bliss excess (ES4 (Ewing's Sarcoma)): -0.0286
- Bliss excess (42-MG-BA (Glioblastoma)): -0.025
- Bliss excess [4]: 0.0019
- Bliss excess [5]: -0.0299
- Bliss excess [6]: -0.0106
- Bliss excess [7]: -0.05
- Bliss excess [8]: 0.167
- Bliss excess [9]: 0.0194
- Bliss excess [10]: -0.0177

SMILES: Cc1c2c(nn1C)CSCc1cc(n(C)n1)CSc1cc(c3ccccc3c1)OCCCc1c(C(=O)O)n(C)c3c-2c(Cl)ccc13 [AZD5991] + CCN(CCO)CCCOc1ccc2c(Nc3cc(CC(=O)Nc4cccc(F)c4)[nH]n3)ncnc2c1 [AZD2811] (first compound max 1 µM, 7x7, partner max 1 µM)
- Bliss excess [1]: 0.0296
- Bliss excess [2]: 0.103
- Bliss excess [3]: -0.0575
- Bliss excess (ES4 (Ewing's Sarcoma)): 0.0003
- Bliss excess (42-MG-BA (Glioblastoma)): 0.0282
- Bliss excess [4]: 0.0652
- Bliss excess [5]: 0.0297
- Bliss excess [6]: -0.0024
- Bliss excess [7]: 0.0649
- Bliss excess [8]: 0.0028
- Bliss excess [9]: 0.0399
- Bliss excess [10]: 0.0597

SMILES: Cc1c2c(nn1C)CSCc1cc(n(C)n1)CSc1cc(c3ccccc3c1)OCCCc1c(C(=O)O)n(C)c3c-2c(Cl)ccc13 [AZD5991] + CN(C)CCCOc1ccc(-c2ccc3ncc4c(c3c2)n(C2CCOCC2)c(=O)n4C)cn1 [AZD0156] (first compound max 1 µM, 7x7, partner max 1 µM)
- Bliss excess [1]: -0.0084
- Bliss excess [2]: -0.0207
- Bliss excess [3]: -0.0266
- Bliss excess (ES4 (Ewing's Sarcoma)): 0.0042
- Bliss excess (42-MG-BA (Glioblastoma)): 0.0259
- Bliss excess [4]: 0.0054
- Bliss excess [5]: 0.0346
- Bliss excess [6]: 0.0351
- Bliss excess [7]: 0.0128
- Bliss excess [8]: -0.004
- Bliss excess [9]: -0.016
- Bliss excess [10]: 0.0528

SMILES: Cc1c2c(nn1C)CSCc1cc(n(C)n1)CSc1cc(c3ccccc3c1)OCCCc1c(C(=O)O)n(C)c3c-2c(Cl)ccc13 [AZD5991] + C[C@@H]1COCCN1C2=NC(=NC(=C2)C3(CC3)[S@](=N)(=O)C)C4=C5C=CNC5=NC=C4 [AZD6738] (first compound max 1 µM, 7x7, partner max 10 µM)
- Bliss excess [1]: 0.0159
- Bliss excess [2]: -0.0218
- Bliss excess [3]: 0.0312
- Bliss excess (ES4 (Ewing's Sarcoma)): -0.0118
- Bliss excess (42-MG-BA (Glioblastoma)): 0.041
- Bliss excess [4]: 0.0196
- Bliss excess [5]: 0.0218
- Bliss excess [6]: 0.0361
- Bliss excess [7]: -0.0441
- Bliss excess [8]: 0.017
- Bliss excess [9]: 0.0182
- Bliss excess [10]: 0.0584

SMILES: Cc1c2c(nn1C)CSCc1cc(n(C)n1)CSc1cc(c3ccccc3c1)OCCCc1c(C(=O)O)n(C)c3c-2c(Cl)ccc13 [AZD5991] + C[C@@H](Nc1cc(F)cc(F)c1)c1cc(C(=O)N(C)C)cc2c(=O)cc(N3CCOCC3)oc12 [AZD8186] (first compound max 1 µM, 7x7, partner max 3 µM)
- Bliss excess [1]: 0.0098
- Bliss excess [2]: -0.0121
- Bliss excess [3]: -0.043
- Bliss excess (ES4 (Ewing's Sarcoma)): -0.0286
- Bliss excess (42-MG-BA (Glioblastoma)): -0.0084
- Bliss excess [4]: -0.0189
- Bliss excess [5]: 0.0026
- Bliss excess [6]: 0.0505
- Bliss excess [7]: -0.0254
- Bliss excess [8]: 0.023
- Bliss excess [9]: -0.0102
- Bliss excess [10]: -0.0338
